Experimental data taken from ChEMBL document CHEMBL4382257, “Identification and Profiling of Hydantoins-A Novel Class of Potent Antimycobacterial DprE1 Inhibitors” (J Med Chem, 2018).

Experiment: Intrinsic clearance in human liver microsomes at 0.5 uM after 30 mins in presence of NADPH by LC-MS/MS analysis
Format: ADME, Microsome
Conditions: 0.5 h

| CLH | SMILES |
| --- | --- |
| < 0.4 mL/min/g | CC1(c2ccc(N3CCOC3=O)cc2)NC(=O)N(CC(=O)c2ccc(F)cc2F)C1=O (stereo not drawn) |
| 0.46 mL/min/g | CC1(c2ccc(S(C)(=O)=O)cc2)NC(=O)N(CC(=O)c2ccc(F)cc2F)C1=O (stereo not drawn) |
| < 0.4 mL/min/g | CC1(c2ccc(-n3cnnn3)cc2)NC(=O)N(CC(=O)c2ccc(F)cc2F)C1=O (stereo not drawn) |

Experiment: Intrinsic clearance in mouse liver microsomes at 0.5 uM after 30 mins in presence of NADPH by LC-MS/MS analysis
Format: ADME, Microsome
Conditions: 0.5 h

| CLH | SMILES |
| --- | --- |
| 3.54 mL/min/g | CC1(c2ccc(N3CCOC3=O)cc2)NC(=O)N(CC(=O)c2ccc(F)cc2F)C1=O (stereo not drawn) |
| 2.5 mL/min/g | CC1(c2ccc(S(C)(=O)=O)cc2)NC(=O)N(CC(=O)c2ccc(F)cc2F)C1=O (stereo not drawn) |
| 2.44 mL/min/g | CC1(c2ccc(-n3cnnn3)cc2)NC(=O)N(CC(=O)c2ccc(F)cc2F)C1=O (stereo not drawn) |

Experiment: physchem
Conditions: buffer, pH 7.4, logD

| chromatographic logD | SMILES |
| --- | --- |
| 3.94 | CC1(c2ccc(N3CCOC3=O)cc2)NC(=O)N(CC(=O)c2ccc(F)cc2F)C1=O (stereo not drawn) |
| 5.49 | CC1(c2ccc(OC(F)F)cc2)NC(=O)N(CC(=O)c2ccc(Cl)s2)C1=O (stereo not drawn) |
| 5.41 | Cc1ccc(C2(C)NC(=O)N(CC(=O)c3ccc(F)cc3F)C2=O)cc1 (stereo not drawn) |
| 4.03 | CC1(c2ccc(OC(F)F)cc2)NC(=O)N(CC(=O)N2CCCCC2)C1=O (stereo not drawn) |
| 4.25 | CC1(c2ccc(C#N)cc2)NC(=O)N(CC(=O)c2cccc([N+](=O)[O-])c2)C1=O (stereo not drawn) |
| 6.86 | CC1(c2ccc(Br)cc2)CC(=O)N(CC(=O)c2ccc(F)cc2F)C1=O (stereo not drawn) |
| 4.45 | COc1ccccc1C(=O)CN1C(=O)NC(C)(c2ccc(C#N)cc2)C1=O (stereo not drawn) |
| 4.35 | CC1(c2ccc(OC(F)F)cc2)NC(=O)N(CC(=O)c2ccccn2)C1=O (stereo not drawn) |
| 4.45 | CC1(c2ccc(OC(F)F)cc2)NC(=O)N(CC(=O)c2nccs2)C1=O (stereo not drawn) |
| 3.54 | CC1(c2ccc(OC(F)F)cc2)NC(=O)N(CC(=O)c2cccnc2)C1=O (stereo not drawn) |
| 4.58 | N#Cc1ccc(-c2cn(CC(=O)c3ccc(F)cc3F)cn2)cc1 |
| 3.38 | CC1(c2ccc(N)cc2)NC(=O)N(CC(=O)c2ccc(F)cc2F)C1=O (stereo not drawn) |
| 4.84 | COc1ccc(C2(C)NC(=O)N(CC(=O)c3ccc(F)cc3F)C2=O)cc1F (stereo not drawn) |
| 3.64 | CC1(c2ccc(S(C)(=O)=O)cc2)NC(=O)N(CC(=O)c2ccc(F)cc2F)C1=O (stereo not drawn) |
| 4.59 | CC1(c2ccc(OC(F)F)cc2)NC(=O)N(CC(=O)c2cccs2)C1=O (stereo not drawn) |
| 4.47 | COc1cc(C2(C)NC(=O)N(CC(=O)c3ccc(F)cc3F)C2=O)cc(OC)c1OC (stereo not drawn) |
| 6.31 | CC1(c2ccc(C#N)cc2)NC(=O)N(CC(=O)C23CC4CC(CC(C4)C2)C3)C1=O (stereo not drawn) |
| 3.78 | CC1(c2ccc(-n3cnnn3)cc2)NC(=O)N(CC(=O)c2ccc(F)cc2F)C1=O (stereo not drawn) |
| 5.28 | CC1(c2ccc(Cl)cc2)NC(=O)N(CC(=O)c2ccc(F)cc2)C1=O (stereo not drawn) |
| 5.54 | CC1(c2ccc(Cl)cc2)NC(=O)N(CC(=O)c2ccc(F)cc2F)C1=O (stereo not drawn) |
| 4.72 | COc1ccc(C2(C)NC(=O)N(Cc3ccc(F)cc3)C2=O)cc1 (stereo not drawn) |
| 5.43 | CCOc1ccc(C2(C)NC(=O)N(CC(=O)c3ccc(F)cc3F)C2=O)cc1 (stereo not drawn) |
| 4.33 | CC1(c2ccc(C#N)cc2)NC(=O)N(C2Cc3cc(F)cc(F)c3C2=O)C1=O (stereo not drawn) |

| chromatographic logD | SMILES |
| --- | --- |
| 6.64 | CCCC1(c2ccc(Br)cc2)NC(=O)N(CC(=O)c2ccc(F)cc2F)C1=O (stereo not drawn) |
| 4.99 | CCC1(c2ccc(C#N)cc2)NC(=O)N(CC(=O)c2ccc(F)cc2F)C1=O (stereo not drawn) |
| 4.92 | COc1ccc(C(=O)CN2C(=O)NC(C)(c3ccc(OC(F)F)cc3)C2=O)cc1 (stereo not drawn) |
| 5.22 | CN1C(=O)N(CC(=O)c2ccc(F)cc2F)C(=O)C1(C)c1ccc(C#N)cc1 (stereo not drawn) |
| 4.53 | COc1ccc(C2(C)NC(=O)N(CC(=O)c3ccc(F)cc3)C2=O)cc1 (stereo not drawn) |
| 3.96 | COc1ccc(C2(C)NC(=O)N(CC(O)c3ccc(F)cc3F)C2=O)cc1 (stereo not drawn) |
| 3.67 | CC1(c2cccc(NS(C)(=O)=O)c2)NC(=O)N(CC(=O)c2ccc(F)cc2F)C1=O (stereo not drawn) |
| 3.84 | CC1(c2ccc(-n3ccnc3)cc2)NC(=O)N(CC(=O)c2ccc(F)cc2F)C1=O (stereo not drawn) |
| 3.94 | CC1(c2ccc(C#N)nc2)NC(=O)N(CC(=O)c2ccc(F)cc2F)C1=O (stereo not drawn) |
| 4.51 | CC1(c2cccc(C#N)c2)NC(=O)N(CC(=O)c2ccc(F)cc2F)C1=O (stereo not drawn) |
| 5.35 | CC1(c2ccc(Cl)cc2)NC(=O)N(CCC(=O)c2ccc(F)cc2)C1=O (stereo not drawn) |
| 3.89 | CC1(c2ccc(C#N)cc2)NC(=O)N(CC(=O)c2ncc(F)cc2F)C1=O (stereo not drawn) |
| 4.84 | COc1ccc(C2(C)NC(=O)N(CCc3ccc(F)cc3)C2=O)cc1 (stereo not drawn) |
| 4.78 | COc1ccc(C2(C)NC(=O)N(CC(=O)c3ccc(F)cc3F)C2=O)cc1 (stereo not drawn) |
| 3.72 | CC1(c2ccc(Cl)cc2)NC(=O)N(C(=O)c2ccc(F)cc2F)C1=O (stereo not drawn) |
| 4.4 | CC1(c2ccc(C#N)cc2)NC(=O)N(CCC(=O)c2ccc(F)cc2)C1=O (stereo not drawn) |
| 4.12 | Cc1cc(C(=O)CN2C(=O)NC(C)(c3ccc(OC(F)F)cc3)C2=O)c(C)[nH]1 (stereo not drawn) |
| 4.5 | CC1(c2ccc(C#N)cc2)NC(=O)N(Cc2ccc(F)cc2)C1=O (stereo not drawn) |
| 6.74 | CC1(c2ccc(Br)cc2)CCN(CC(=O)c2ccc(F)cc2F)C1=O (stereo not drawn) |
| 4.45 | CC1(c2ccc(N3CCOCC3)cc2)NC(=O)N(CC(=O)c2ccc(F)cc2F)C1=O (stereo not drawn) |
| 3.91 | CC1(c2ccc(OC(F)F)cc2)NC(=O)N(CC(=O)c2ccc[nH]2)C1=O (stereo not drawn) |
| 4.26 | CC1(c2ccc(C#N)cc2)NC(=O)N(CC(=O)c2ccc(F)cc2)C1=O (stereo not drawn) |
| 5.5 | COc1cc(C2(C)NC(=O)N(CC(=O)c3ccc(F)cc3F)C2=O)ccc1OC(F)F (stereo not drawn) |

| chromatographic logD | SMILES |
| --- | --- |
| 3.37 | CC1(c2ccc(OC(F)F)cc2)NC(=O)N(CC(=O)N2CCCC2)C1=O (stereo not drawn) |
| 4.56 | CC1(c2ccc(C#N)cc2)NC(=O)N(CCc2ccc(F)cc2)C1=O (stereo not drawn) |
| 3.52 | CC1(c2ccc(OC(F)F)cc2)NC(=O)N(CC(=O)c2ccncc2)C1=O (stereo not drawn) |
| 5.77 | CC(=O)N1C(=O)N(CC(=O)c2ccc(F)cc2F)C(=O)C1(C)c1ccc(C#N)cc1 (stereo not drawn) |
| 5.42 | COc1ccc(F)cc1C(=O)CN1C(=O)NC(C)(c2ccc(OC(F)F)cc2)C1=O (stereo not drawn) |
| 5.71 | O=C(CN1C(=O)NC2(CCc3cc(Br)ccc32)C1=O)c1ccc(F)cc1F (stereo not drawn) |
| 4.51 | C[C@@]1(c2ccc(C#N)cc2)NC(=O)N(CC(=O)c2ccc(F)cc2F)C1=O |
| 3.59 | CC1(c2ccc(C#N)cc2)NC(=O)N(CC(=NO)c2ccc(F)cc2F)C1=O (stereo in doubt; 43b) |
| 4.72 | COc1ccc(C2(C)CN(CC(=O)c3ccc(F)cc3F)C(=O)N2)cc1 (stereo in doubt; 151a) |
| 5.59 | CC1(c2ccc(Cl)cc2)NC(=O)N(Cc2ccc(F)cc2)C1=O (stereo not drawn) |
| 4.67 | CC1(c2ccc(C#N)s2)NC(=O)N(CC(=O)c2ccc(F)cc2F)C1=O (stereo not drawn) |
| 5.72 | CC1(c2cccc(Br)c2)NC(=O)N(CC(=O)c2ccc(F)cc2F)C1=O (stereo not drawn) |
| 5.1 | CC1(c2ccc(C#N)cc2)NC(=O)N(CC(F)(F)c2ccc(F)cc2F)C1=O (stereo not drawn) |
| 6.8 | O=C(CN1C(=O)NC(c2ccc(Br)cc2)(C(F)(F)F)C1=O)c1ccc(F)cc1F (stereo not drawn) |
| 4.87 | CC1(c2ccc(Br)cn2)NC(=O)N(CC(=O)c2ccc(F)cc2F)C1=O (stereo not drawn) |
| 6.17 | CCC1(c2ccc(Br)cc2)NC(=O)N(CC(=O)c2ccc(F)cc2F)C1=O (stereo not drawn) |
| 5.08 | CC1(c2ccc(OC(F)F)cc2)NC(=O)N(CC(=O)c2ccc(F)cc2)C1=O (stereo not drawn) |
| 4.21 | CC1(c2ccc(C#N)cc2)NC(=O)N(CC2(c3ccc(F)cc3F)COC2)C1=O (stereo not drawn) |
| 4.9 | CC1(c2ccc(OC(F)F)cc2)NC(=O)N(CC(=O)c2ccc3c(c2)OCO3)C1=O (stereo not drawn) |
| 4.68 | COc1ccc(-c2cn(CC(=O)c3ccc(F)cc3F)cn2)cc1 |
| 3.04 | CC1(c2ccncc2)NC(=O)N(CC(=O)c2ccc(F)cc2F)C1=O (stereo not drawn) |
| 3.42 | CC1(c2ccc(C#N)cc2)NC(=O)N(CC(=O)c2nccs2)C1=O (stereo not drawn) |
| 5.17 | N#Cc1ccc(-c2cnn(CC(=O)c3ccc(F)cc3F)c2)cc1 |

| chromatographic logD | SMILES |
| --- | --- |
| 5.8 | CC1(c2ccc(Br)cc2F)NC(=O)N(CC(=O)c2ccc(F)cc2F)C1=O (stereo not drawn) |
| 4.51 | C[C@]1(c2ccc(C#N)cc2)NC(=O)N(CC(=O)c2ccc(F)cc2F)C1=O |
| 4.96 | COc1cccc(C2(C)NC(=O)N(CC(=O)c3ccc(F)cc3F)C2=O)c1 (stereo not drawn) |
| 6.57 | CC(C)C1(c2ccc(Br)cc2)NC(=O)N(CC(=O)c2ccc(F)cc2F)C1=O (stereo not drawn) |
| 5.05 | COc1ccc(C2(C)NC(=O)N(CC(=O)c3ccc(F)cc3F)C2=O)c(F)c1 (stereo not drawn) |
| 5.03 | COc1ccc(C(=O)CN2C(=O)NC(C)(c3ccc(OC(F)F)cc3)C2=O)cc1F (stereo not drawn) |
| 5.23 | CC1(c2ccc(OC(F)F)cc2)NC(=O)N(CC(=O)c2ccccc2F)C1=O (stereo not drawn) |
| 3.43 | COc1ccc(C2(C)NC(=O)N(C(=O)c3ccc(F)cc3F)C2=O)cc1 (stereo not drawn) |
| 5.13 | CC1(c2ccc(OC(F)F)cc2)NC(=O)N(CC(=O)c2cccc(F)c2)C1=O (stereo not drawn) |
| 6.01 | CC1(c2ccc(C(F)(F)F)cc2)NC(=O)N(CC(=O)c2ccc(F)cc2F)C1=O (stereo not drawn) |
| 5.06 | Cc1ccc(C(=O)CN2C(=O)NC(C)(c3ccc(OC(F)F)cc3)C2=O)s1 (stereo not drawn) |
| 4.25 | COc1ccc(C(=O)CN2C(=O)NC(C)(c3ccc(C#N)cc3)C2=O)cc1 (stereo not drawn) |
| 4.6 | COc1ccc(C2(C)NC(=O)N(CCC(=O)c3ccc(F)cc3)C2=O)cc1 (stereo not drawn) |
| 6.05 | CC1(c2ccc(OC(F)(F)F)cc2)NC(=O)N(CC(=O)c2ccc(F)cc2F)C1=O (stereo not drawn) |
| 4.39 | COc1cccc(C(=O)CN2C(=O)NC(C)(c3ccc(C#N)cc3)C2=O)c1 (stereo not drawn) |
| 3.97 | CC1(c2ccc(C#N)cn2)NC(=O)N(CC(=O)c2ccc(F)cc2F)C1=O (stereo not drawn) |
| 5.97 | Cc1ccc(C)c(C(=O)CN2C(=O)NC(C)(c3ccc(OC(F)F)cc3)C2=O)c1 (stereo not drawn) |
| 4.97 | CC1(c2ccc(OC(F)F)cc2)NC(=O)N(CC(=O)c2ccccc2)C1=O (stereo not drawn) |
| 5.68 | CC1(c2ccc(Cl)cc2)NC(=O)N(CCc2ccc(F)cc2)C1=O (stereo not drawn) |
| 4.67 | CC1(c2ccc(Br)nc2)NC(=O)N(CC(=O)c2ccc(F)cc2F)C1=O (stereo not drawn) |
| 3.28 | CC(=O)Nc1ccc(C2(C)NC(=O)N(CC(=O)c3ccc(F)cc3F)C2=O)cc1 (stereo not drawn) |
| 5.07 | CC1(c2ccc(C#N)cc2)NC(=O)N(CC(=O)C2CCCCC2)C1=O (stereo not drawn) |
| 5.3 | CC1(c2ccc(C#N)cc2)NC(=O)N(CC(=O)c2cccc(C(F)(F)F)c2)C1=O (stereo not drawn) |
